System: subjects with moderate-to-severe plaque psoriasis
Assay: PASI response, Example 1 16-week dose-ranging study
Type: in vivo, human
Procedure: The Psoriasis Area and Severity Index (PASI) is a system used for assessing and grading the severity of psoriatic lesions and their response to therapy. In the PASI system, the body is divided into four regions: the head, trunk, upper extremities, and lower extremities. Each of these areas is assessed and scored separately for erythema, induration, and scaling, which are each rated on a scale of 0 to 4 and extent of involvement on a scale of 0 to 6. The PASI produces a numeric score (a “PASI score”) that can range from 0 to 72. A higher score indicates more severe disease.
This was a randomized, double-blind, placebo-controlled, dose-ranging, parallel group, multicenter, interventional study in subjects with moderate-to-severe plaque psoriasis. A target of 240 subjects were enrolled in this study with 40 subjects planned per intervention group.
Clinician-reported outcomes including Psoriasis Area and Severity Index (PASI), Body Surface Area (BSA), Investigator's Global Assessment (IGA), Nail Psoriasis Area and Severity Index (NAPSI), Fingernail Physician's Global Assessment (f-PGA), Static Physician's Global Assessment of Genitalia (s-PGA-G), Physician's Global Assessment of Hands and/or Feet (hf-PGA), and Scalp Specific Investigator Global Assessment (ss-IGA) were obtained at Week 0, 8, and 16. PASI and IGA were also obtained at Weeks 1, 2, 4, and 12, and at Week 20, four weeks after the administration of the tablets has stopped.
The primary efficacy endpoint was the proportion of participants achieving a PASI 75 response at Week 16, defined as at least a 75% reduction from baseline in PASI total score.
For the primary analysis, composite strategy (non-responder imputation) was applied to address intercurrent event #1 (Discontinuation of study intervention due to lack of efficacy or due to an AE of worsening of psoriasis) and #2 (initiation of a protocol-prohibited medication or therapy that could improve psoriasis); and treatment policy strategy (observed data) was applied to intercurrent event #3 (Discontinuation of study intervention due to other reasons). Participants with missing data after application of ICEs are also considered as non-responders.
In addition to the response analysis, pairwise comparisons of each treatment group versus the placebo group were performed for the primary endpoint of PASI 75 at Week 16. Pairwise comparisons were not adjusted for multiplicity. The Cochran-Mantel-Haenszel chi-square statistic stratified by baseline weight category (≤90 kg, >90 kg) at a 2-sided significance level of 0.05 was used (Table 2).

[1] = 100 mg BID, Week 16, trough plasma conc Q1 to <Q2
[2] = 100 mg BID, Week 16, trough plasma conc Q2 to <Q3
[3] = 100 mg BID, Week 16, trough plasma conc ≥Q3
[4] = 100 mg QD, Week 16, peak plasma conc. <Q1, N=2
[5] = 100 mg QD, Week 16, peak plasma conc. Q1 to <Q2, N=2
[6] = 100 mg QD, Week 16, peak plasma conc. Q2 to <Q3, N=2
[7] = 100 mg QD, Week 16, peak plasma conc. ≥Q3, N=2
[8] = 100 mg QD, Week 16, trough plasma conc <Q1
[9] = 100 mg QD, Week 16, trough plasma conc Q1 to <Q2
[10] = 100 mg QD, Week 16, trough plasma conc Q2 to <Q3
[11] = 100 mg QD, Week 16, trough plasma conc ≥Q3
[12] = Combined doses, Week 16, peak plasma conc. <Q1, N=10
[13] = Combined doses, Week 16, peak plasma conc. Q1 to <Q2, N=11
[14] = Combined doses, Week 16, peak plasma conc. Q2 to <Q3, N=10
[15] = Combined doses, Week 16, peak plasma conc. ≥Q3, N=11
[16] = Combined doses, Week 16, trough plasma conc <Q1
[17] = Combined doses, Week 16, trough plasma conc Q1 to <Q2

Structure (SMILES): CC(=O)NCCCC[C@@H]1NC(=O)[C@H](Cc2c[nH]c3c(C)cccc23)NC(=O)[C@H]([C@@H](C)O)NC(=O)[C@H](CC(N)=O)NC(=O)[C@@H](NC(C)=O)C(C)(C)SSC(C)(C)[C@@H](C(=O)N[C@@H](Cc2ccc(OCCN)cc2)C(=O)N[C@@H](Cc2ccc3ccccc3c2)C(=O)NC2(C(=O)N[C@@H](CCC(=O)O)C(=O)N[C@@H](CC(N)=O)C(=O)N[C@@H](Cc3cccnc3)C(=O)N(C)CC(N)=O)CCOCC2)NC1=O [IL-23 receptor antagonist peptide, Ac-[Pen]*-N-T-[W(7-Me)]-[Lys(Ac)]-[Pen]*-Phe[4-(2-aminoethoxy)]-[2-Nal]-[THP]-E-N-[3-Pal]-Sarc-NH2 (*[Pen]-[Pen]* formdisulfidebond)]
- PASI 100% Improvement, subjects [1]: 2 (40.0%)
- PASI ≥75% Improvement, subjects [1]: 4 (80.0%)
- PASI ≥90% Improvement, subjects [1]: 3 (60.0%)
- PASI 100% Improvement, subjects [2]: 2 (40.0%)
- PASI ≥75% Improvement, subjects [2]: 5 (100.0%)
- PASI ≥90% Improvement, subjects [2]: 3 (60.0%)
- PASI 100% Improvement, subjects [3]: 2 (40.0%)
- PASI ≥75% Improvement, subjects [3]: 4 (80.0%)
- PASI ≥90% Improvement, subjects [3]: 4 (80.0%)
- Subjects achieving PASI 75 (100 mg QD, Week 4): 16.3%
- PASI 75 treatment difference vs placebo (100 mg QD, Week 16): 55.8%
- PASI 90 treatment difference vs placebo (100 mg QD, Week 16): 44.2% (28.6%,
- PASI 100 treatment difference vs placebo (100 mg QD, Week 16): 23.3% (10.7%,
- Subjects achieving PASI 90 (100 mg QD, Week 16): 20 (46.5%)
- Subjects achieving PASI 100 (100 mg QD, Week 16): 10 (23.3%)
- PASI 75, % (100 mg QD, Week 16, N=43): 65.1%
- PASI 90, % (100 mg QD, Week 16, N=43): 46.5%
- PASI 100, % (100 mg QD, Week 16, N=43): 23.3%
- PASI 100% Improvement, n subjects [4]: 0
- PASI ≥75% Improvement, % subjects [4]: (100.0%)
- PASI ≥75% Improvement, n subjects [4]: 2
- PASI ≥90% Improvement, % subjects [4]: (50.0%)
- PASI ≥90% Improvement, n subjects [4]: 1
- PASI 100% Improvement, % subjects [5]: (50.0%)
- PASI 100% Improvement, n subjects [5]: 1
- PASI ≥75% Improvement, % subjects [5]: (100.0%)
- PASI ≥75% Improvement, n subjects [5]: 2
- PASI ≥90% Improvement, % subjects [5]: (50.0%)
- PASI ≥90% Improvement, n subjects [5]: 1
- PASI 100% Improvement, n subjects [6]: 0
- PASI ≥75% Improvement, % subjects [6]: (50.0%)
- PASI ≥75% Improvement, n subjects [6]: 1
- PASI ≥90% Improvement, % subjects [6]: (50.0%)
- PASI ≥90% Improvement, n subjects [6]: 1
- PASI 100% Improvement, n subjects [7]: 0
- PASI ≥75% Improvement, n subjects [7]: 1
- PASI ≥90% Improvement, % subjects [7]: (50.0%)
- PASI ≥90% Improvement, n subjects [7]: 1
- PASI 100% Improvement, subjects [8]: 2 (40.0%)
- PASI ≥75% Improvement, subjects [8]: 3 (60.0%)
- PASI ≥90% Improvement, subjects [8]: 3 (60.0%)
- PASI 100% Improvement, subjects [9]: 0
- PASI ≥75% Improvement, subjects [9]: 3 (60.0%)
- PASI ≥90% Improvement, subjects [9]: 3 (60.0%)
- PASI 100% Improvement, subjects [10]: 1 (20.0%)
- PASI ≥75% Improvement, subjects [10]: 3 (60.0%)
- PASI ≥90% Improvement, subjects [10]: 2 (40.0%)
- PASI 100% Improvement, subjects [11]: 1 (20.0%)
- PASI ≥75% Improvement, subjects [11]: 3 (60.0%)
- PASI ≥90% Improvement, subjects [11]: 2 (40.0%)
- PASI 100% Improvement, n subjects [12]: 0
- PASI ≥75% Improvement, n subjects [12]: 4
- PASI ≥90% Improvement, % subjects [12]: (30.0%)
- PASI ≥90% Improvement, n subjects [12]: 3
- PASI 100% Improvement, % subjects [13]: (18.2%)
- PASI 100% Improvement, n subjects [13]: 2
- PASI ≥75% Improvement, n subjects [13]: 10
- PASI ≥90% Improvement, % subjects [13]: (63.6%)
- PASI ≥90% Improvement, n subjects [13]: 7
- PASI 100% Improvement, % subjects [14]: (10.0%)
- PASI 100% Improvement, n subjects [14]: 1
- PASI ≥75% Improvement, n subjects [14]: 7
- PASI ≥90% Improvement, % subjects [14]: (60.0%)
- PASI ≥90% Improvement, n subjects [14]: 6
- PASI 100% Improvement, % subjects [15]: (36.4%)
- PASI 100% Improvement, n subjects [15]: 4
- PASI ≥75% Improvement, n subjects [15]: 8
- PASI ≥90% Improvement, % subjects [15]: (63.6%)
- PASI ≥90% Improvement, n subjects [15]: 7
- PASI 100% Improvement, subjects [16]: 7 (26.9%)
- PASI ≥75% Improvement, subjects [16]: 13 (50.0%)
- PASI ≥90% Improvement, subjects [16]: 11 (42.3%)
- PASI 100% Improvement, subjects [17]: 4 (15.4%)
- PASI ≥75% Improvement, subjects [17]: 12 (46.2%)
- PASI ≥90% Improvement, subjects [17]: 7 (26.9%)
